This note sets out measurements from ChEMBL document CHEMBL1201862, “PubChem BioAssay data set” (2004).

Test systems include BT-549; EKVX; HCC 2998; HCT-15; HL-60; HT-29; IGROV-1; MCF7; MDA-MB-435; MOLT-4; Malme-3M; OVCAR-3; OVCAR-8; PC-3; RXF 393; SF-268; SF-295; SF-539; SK-MEL-5; UACC-257.
Test in all cases: DTP human tumour cell line panel, 48 h

Structures are written as SMILES.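 A five-concentration, 48-hour dose response in 96-well plates underlies each endpoint, interpolated linearly between surrounding concentrations. GI50: concentration for 50% inhibition of growth.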 Active and inactive are the calls of the source. Rule as the data show it: active = GI50 up to about 1.1 µM and inactive = higher. Where a SMILES comes first, the peptide text is derived from it. [ ]: non-standard residue; d: D form. The star is where a group is joined. ξ: configuration not given here. NMeF = CN[C@@H](Cc1ccccc1)C(=O)O; NMeV = CN[C@H](C(=O)O)C(C)C; ξNMeN = CNC(CC(N)=O)C(=O)O; NMeA = CN[C@@H](C)C(=O)O; ξNMeV = CNC(C(=O)O)C(C)C; Boc = CC(C)(C)OC(=O)*

By GI50 is commonly meant the concentration at which growth is held to half of that of the control. `CC(C)(C)OC(=O)NCC(c1c[nH]c2cc(Br)ccc12)c1c[nH]c2cc(Br)ccc12`: the GI50 in the assay with BT-549 was 16.1 µM (inactive); in the assay with EKVX it was 16.2 µM (inactive); with HCC 2998 it was 18.9 µM (inactive); in the assay on HCT-15, 15.1 µM; with HL-60, 27.2 µM (inactive); with HT-29, 16.9 µM (inactive). Moreover, the GI50 in the assay on IGROV-1 was 14.9 µM (inactive); in the assay with MCF7, 18.6 µM (inactive); with MDA-MB-435, 16.8 µM (inactive); in the assay on MOLT-4, 34.6 µM (inactive); in the assay on Malme-3M it was 17.2 µM (inactive); with OVCAR-3, 15.7 µM (inactive). The GI50 with OVCAR-8 is 18.3 µM (inactive); in the assay on PC-3, 17.3 µM (inactive); with RXF 393, 17.6 µM (inactive); with SF-268, 16.3 µM (inactive); in the assay on SF-295 it was 18.6 µM (inactive); in the assay with SF-539 it was 20.2 µM (inactive). The GI50 in the assay with SK-MEL-5 is 17.3 µM (inactive); with UACC-257, 19.9 µM (inactive).

For the compound `N#CC(c1ccccc1)N(CCCCCCN(C(=O)c1ccccc1)C(C#N)c1ccccc1)C(=O)c1ccccc1` (stereo not given), the GI50 in the assay with BT-549 is 31.1 µM (inactive); in the assay with EKVX, 50.4 µM (inactive); with HCC 2998, 17.1 µM (inactive); in the assay on HCT-15, 31.3 µM; with HL-60, 32.3 µM (inactive); with HT-29, 21.8 µM (inactive). For the same compound, the GI50 in the assay on IGROV-1 was 52.6 µM (inactive); in the assay on MCF7 it was 28.1 µM (inactive); with MDA-MB-435, 32.8 µM (inactive); with MOLT-4, 34.4 µM (inactive); in the assay with Malme-3M it was 35.8 µM (inactive); in the assay with OVCAR-3, 39 µM (inactive). The GI50 is 30.1 µM (inactive) in the assay with OVCAR-8; 28.2 µM (inactive) with PC-3; 52.1 µM (inactive) in the assay with RXF 393; 40.4 µM (inactive) in the assay with SF-268; 27.9 µM (inactive) in the assay on SF-295; 41.5 µM (inactive) in the assay with SF-539. For the same compound, the results for the GI50 in the assay with SK-MEL-5 and in the assay on UACC-257 were 17.9 µM (inactive) and 22.8 µM (inactive), respectively.

With `CC1CNC(c2ccc(-c3nc(-c4ccc(C5=NC(C)CN5)cc4)nc(N(C)C)n3)cc2)=N1` (stereo not given), the GI50 was 3.74 µM (inactive) in the assay on BT-549; 2.54 µM (inactive) in the assay with EKVX; 1.83 µM (inactive) with HCC 2998; 16.6 µM in the assay with HCT-15; 2.62 µM (inactive) with HL-60; 1.79 µM (inactive) with HT-29. Also, the GI50 was 4.06 µM (inactive) in the assay on IGROV-1; 1.42 µM (inactive) in the assay with MCF7; 1.46 µM (inactive) in the assay with MDA-MB-435; 0.681 µM (active) in the assay with MOLT-4; 3.08 µM (inactive) in the assay with Malme-3M; 1.79 µM (inactive) in the assay with OVCAR-3. The GI50 is 2.12 µM (inactive) with OVCAR-8; 1.57 µM (inactive) with PC-3; 3.22 µM (inactive) in the assay on RXF 393; 2 µM (inactive) in the assay on SF-268; 4.22 µM (inactive) with SF-295; 0.855 µM (active) in the assay with SF-539. Further, the GI50 with SK-MEL-5 is 3.8 µM (inactive); in the assay with UACC-257 it was 3.08 µM (inactive).

`COC(=O)[C@H](C)N(C)C(=O)C(CC(N)=O)N(C)C(=O)[C@H](Cc1ccccc1)N(C)C(=O)[C@@H]1CCCN1C(=O)[C@H](C(C)C)N(C)C(=O)C(C(C)C)N(C)C(=O)[C@@H](NC(=O)OC(C)(C)C)C(C)C` (stereo not given in full) (Boc-V[ξNMeV][NMeV]P[NMeF][ξNMeN][NMeA]-OMe): the GI50 in the assay on BT-549 was > 50 µM (inactive); in the assay with EKVX, > 50 µM (inactive); in the assay on HCC 2998 it was > 50 µM (inactive); in the assay on HCT-15, greater than 75 µM; with HL-60 it was 12.1 µM (inactive); in the assay on HT-29, > 50 µM (inactive). The GI50 in the assay on IGROV-1 is > 50 µM (inactive); in the assay with MCF7 it was > 50 µM (inactive); in the assay on MDA-MB-435, > 50 µM (inactive); in the assay on MOLT-4 it was 24.5 µM (inactive); in the assay with Malme-3M, > 75 µM (inactive); in the assay on OVCAR-3 it was > 50 µM (inactive). Moreover, the GI50 in the assay with OVCAR-8 was 48.6 µM (inactive); in the assay on PC-3 it was > 50 µM (inactive); in the assay on RXF 393 it was 37.6 µM (inactive); in the assay on SF-268 it was 41.7 µM (inactive); with SF-295, > 50 µM (inactive); with SF-539 it was > 50 µM (inactive). Besides, the GI50 in the assay on SK-MEL-5 and in the assay with UACC-257 was > 50 µM (inactive) in each case.
